The results in this text go back to ChEMBL document CHEMBL5120884, “Complex Flavanones from Cryptocarya metcalfiana and Structural Revision of Oboflavanone A” (J Nat Prod, 2022).

The term IC50 denotes the concentration at which inhibition is half-maximal. A higher IC50 goes with lower potency.

Some results are limits rather than exact numbers.

In the assay the test system is HCT-116. The assay is described as follows: Cytotoxicity against human HCT-116 cells incubated for 48 hrs by MTT assay. The class given is functional, cell-based. As to conditions: HCT-116, 48 h. (Formazan colour is commonly taken as a measure of viable cells.)
`O=C(O)CCC[C@@H]1C[C@@H]2C[C@@](/C=C/c3ccccc3)(Oc3cc4c(c(O)c32)C(=O)C[C@H](c2ccccc2)O4)O1` returned an IC50 above 10 µM.
Regarding `O=C(O)CCC[C@@H]1C[C@@H]2C[C@@](/C=C/c3ccccc3)(Oc3cc4c(c(O)c32)C(=O)C[C@@H](c2ccccc2)O4)O1`, the IC50 is above 10 µM.
Regarding `COC(=O)CCC[C@@H]1C[C@@H]2C[C@@](CCc3ccccc3)(Oc3cc4c(c(O)c32)C(=O)C[C@@H](c2ccccc2)O4)O1`, the IC50 was above 10 µM.
For `COC(=O)CCC[C@@H]1C[C@@H]2C[C@@](CCc3ccccc3)(Oc3cc4c(c(O)c32)C(=O)C[C@H](c2ccccc2)O4)O1` the value was above 10 µM.
With `O=C1CCC[C@@H]2C[C@H](C[C@](O)(/C=C/c3ccccc3)O2)c2c(cc(O)c3c2O[C@H](c2ccc(O)cc2)CC3=O)O1`, the IC50 came to 4.2 µM.
In turn, `O=C1C=CC[C@H](C[C@@H]2C[C@@H]3C[C@@](CCc4ccccc4)(Oc4cc5c(c(O)c43)C(=O)C[C@@H](c3ccccc3)O5)O2)O1` returned an IC50 of 6.1 µM.
The molecule `O=C1C=CC[C@H](C[C@@H]2C[C@@H]3C[C@@](/C=C/c4ccccc4)(Oc4cc5c(c(O)c43)C(=O)C[C@@H](c3ccccc3)O5)O2)O1` showed an IC50 of 7.2 µM.
On to `O=C1C=CC[C@H](C[C@@H]2C[C@@H]3C[C@@](CCc4ccccc4)(Oc4cc5c(c(O)c43)C(=O)C[C@H](c3ccccc3)O5)O2)O1`, for which the IC50 is 5.8 µM.
Molecule `O=C1CCC[C@@H]2C[C@H](C[C@](O)(/C=C/c3ccccc3)O2)c2c(cc(O)c3c2O[C@@H](c2ccc(O)cc2)CC3=O)O1` yielded an IC50 of 4.5 µM.
